System: platelet aggregation in dog PRP
Assay: In-Vitro Platelet Aggregation in PRP (collagen-induced)
Assay type: cell-based
Conditions: Canis lupus familiaris; for inhibition at 10 µM: Test Concentration 1 × 10^-5 (10 μM), dog PRP, collagen 33.3 μg/m final; for IC50: dog platelet-rich plasma, collagen-induced aggregation
Method: Compounds of the invention were evaluated by an in vitro assay to determine compound activity as an inhibitors of platelet aggregation.
In-Vitro Platelet Aggregation in PRP
Healthy male or female dogs were fasted for 8 hours prior to drawing blood; then 30 ml whole blood from jugular vein was collected using a butterfly needle and 30 ml plastic syringe with 3 ml of 0.129 M buffered sodium citrate (3.8%). The syringe was rotated carefully as blood was drawn to mix the citrate. The whole blood was transferred to a 50 ml Corning Conical sterile centrifuge tube. Platelet-rich plasma (PRP) was prepared by centrifugation at 975×g for 3.17 minutes at room temperature, allowing the centrifuge to coast to a stop without braking. The PRP was removed from the blood with a plastic pipette and placed in a plastic capped, 50 ml Corning conical sterile centrifuge tube which was held at room temperature. Platelet poor plasma (PPP) was prepared by centrifuging the remaining blood at 2000×g for 15 minutes at room temperature allowing the centrifuge to coast to a stop without braking. The PRP platelet count was typically a count of 2.5-4×10^8 platelets per ml. 400 μL of the PRP preparation and 50 μL of the compound to be tested or saline were preincubated for 2 minutes at 37° C. in a BioData aggregometer (BioData, Horsham, PA). 50 μL of Collagen (equine tendon, Chronolog, Hayertown, PA) [33.3 μg/m, final concentration] was added to the cuvettes and the aggregation was monitored for 4 minutes. All compounds are tested in duplicate. Inhibition of aggregation for each sample was determined using the formula: % of inhibition=100-% of control and % of control=(Tinh -Tbas)/(Tag -Tbas) ×100, where Tbas is % of light transmission in PRP (baseline), Tagg is % of light transmission in the aggregated PRP sample (saline control) and Tinh is % of light transmission in the sample containing the inhibitor.

SMILES | inhibition at 10 µM | IC50
Cc1ccc(S(=O)(=O)CC(CC(=O)O)NC(=O)CCCCc2ccc(C(=N)N)cc2)cc1 (racemic) [(+)-3-[[5-[4-(aminoiminomethyl)phenyl]-1-oxopentyl]amino]-4-[[(4-methylphenyl)sulfonyl]butanoic acid] | 100% | –
CCOC(=O)CC(CC[S+]([O-])Cc1ccccc1)NC(=O)CCCCc1ccc(C(=N)N)cc1 (racemic) [(+)-ethyl 3-[[5-[4-aminoiminomethyl)phenyl]-1-oxopentyl]amino]-5-[(phenylmethyl)sulfinyl]pentanoate] | 100% | 420 nM
N=C(N)c1ccc(CCCCC(=O)NC(CC(=O)O)CS(=O)(=O)c2ccccn2)cc1 (racemic) [(±)-3-[[5-[4-(aminoiminomethyl)phenyl]-1-oxopentyl]amino]-4-(2-pyridinylsulfonyl)butanoic acid] | 100% | –
N=C(N)c1ccc(CCCCC(=O)NC(CC(=O)O)CS(=O)(=O)c2ccccc2)cc1 (racemic) [(±)-3-[[5-[4-(aminoiminomethyl)phenyl]-1-oxopentyl]amino]-4-(phenylsulfonyl)butanoic acid] | 100% | 28 nM
N=C(N)c1ccc(CCCCC(=O)NC(CSc2ccccc2)CC(=O)O)cc1 (racemic) [(±)-3-[[5-[4-(aminoiminomethyl)phenyl]-1-oxopentyl]amino]-4-(phenylthio) butanoic acid] | 100% | 500 nM
N=C(N)c1ccc(CCCCC(=O)NC(CSc2ccc(F)cc2)CC(=O)O)cc1 (racemic) [(±)-3-[[5-[4-(aminoiminomethyl)phenyl]-1-oxopentyl]amino]-4-[(4-fluorophenyl)thio]butanoic acid] | 100% | 1800 nM
COc1ccc(S(=O)(=O)CC(CC(=O)O)NC(=O)CCCCc2ccc(C(=N)N)cc2)cc1 (racemic) [(±)-3-[[5-[4-(aminoiminomethyl)phenyl]-1-oxopentyl]amino]-4-[(4-methoxyphenyl)sulfonyl]butanoic acid] | 100% | 130 nM
N=C(N)c1ccc(CCCCC(=O)NC(CC(=O)O)C[S+]([O-])c2ccccc2)cc1 (racemic) [(±)-3-[[5-[4-(aminoiminomethyl)phenyl]-1-oxopentyl]amino]-4-[(phenylsulfinyl)butanoic acid] | 100% | 200 nM
N=C(N)c1ccc(CCCCC(=O)NC(CC(=O)O)CS(=O)(=O)c2ccc(F)cc2)cc1 (racemic) [(±)-3-[[5-[4-(aminoiminomethyl)phenyl]-1-oxopentyl]amino]-4-[[(4-fluorophenyl)]sulfonyl]butanoic acid] | 100% | 120 nM
C[S+]([O-])CCC(CC(=O)O)NC(=O)CCCCc1ccc(C(=N)N)cc1 (racemic) [(±)-3-[[5-[4-(aminoiminomethyl)phenyl]-1-oxopentyl]amino]-5-(methylsulfinyl) pentanoic acid] | 100% | 1500 nM
CS(=O)(=O)CCC(CC(=O)O)NC(=O)CCCCc1ccc(C(=N)N)cc1 (racemic) [(±)-3-[[5-[4-(aminoiminomethyl)phenyl]-1-oxopentyl]amino]-5-(methylsulfonyl)pentanoic acid] | 100% | 700 nM
CSCCC(CC(=O)O)NC(=O)CCCCc1ccc(C(=N)N)cc1 (racemic) [(±)-3-[[5-[4-(aminoiminomethyl)phenyl]-1-oxopentyl]amino]-5-(methylthio) pentanoic acid] | 100% | 1300 nM
N=C(N)c1ccc(CCCCC(=O)NC(CC[S+]([O-])Cc2ccccc2)CC(=O)O)cc1 (racemic) [(±)-3-[[5-[4-(aminoiminomethyl)phenyl]-1-oxopentyl]amino]-5-[(phenylmethyl)sulfinyl]pentanoic acid] | 100% | 100 nM
N=C(N)c1ccc(CCCCC(=O)NC(CCS(=O)(=O)Cc2ccccc2)CC(=O)O)cc1 (racemic) [(±)-3-[[5-[4-(aminoiminomethyl)phenyl]-1-oxopentyl]amino]-5[(phenylmethyl)sulfonyl]pentanoic acid] | 100% | 220 nM
CCOC(=O)CC(C[S+]([O-])c1ccccc1)NC(=O)CCCCc1ccc(C(=N)N)cc1 (racemic) [(±)-ethyl 3-[[5-[4-(aminoiminomethyl)phenyl]-1-oxopentyl]amino]-4-(4-phenylsulfinyl)butanoate] | 0% | –
CCOC(=O)CC(CS(=O)(=O)c1ccccc1)NC(=O)CCCCc1ccc(C(=N)N)cc1 (racemic) [(±)-ethyl 3-[[5-[4-(aminoiminomethyl)phenyl]-1-oxopentyl]amino]-4-(phenylsulfonyl)butanoate] | 3% | –
CCOC(=O)CC(CSc1ccccc1)NC(=O)CCCCc1ccc(C(=N)N)cc1 (racemic) [(±)-ethyl 3-[[5-[[4-(aminoiminomethyl)phenyl]-1-oxopentyl]amino]-4-(4-phenylthio) butanoate] | 0% | –
CC(C)OC(=O)CC(CS(=O)(=O)c1ccccn1)NC(=O)CCCCc1ccc(C(=N)N)cc1 (stereo not drawn) [1-methylethyl 3S-[[5-[4-(aminoiminomethyl)phenyl]-1-oxopentyl]amino]-4-(2-pyridinylsulfonyl)butanoate] | 28% | –
Cc1ccc([S+]([O-])CCNC(=O)CCCCc2ccc(C(=N)N)cc2)cc1 (centres unmarked) [4-(aminoiminomethyl)-N-[2-[(4-methylphenyl)sulfinyl]ethylbenzenepentanamide] | 0% | –
Cc1ccc(S(=O)(=O)CCNC(=O)CCCCc2ccc(C(=N)N)cc2)cc1 [4-(aminoiminomethyl)-N-[2-[(4-methylphenyl)sulfonyl]ethylbenzenepentanamide] | 23% | –

Source: patent US5543425A, “Method of inhibiting platelet aggregation using phenyl amidine thio derivatives” (G. D. Searle & Co., priority 1994, dated 1996)
